Assay results: US9259006B2, “Antimicrobial compositions and methods of use thereof” (priority 2008, dated 2016)
Where two headings read alike, the source gives them in different places.

Experiments:
[1] = test system: E. Coli (ATCC 43888); type: cell-based; settings: inoculum 6.87-log, about 33° F.
[2] = Hypochlorous acid stability and shelf life, DPD assay (Table 10, FIG. 1); type: physicochemical
[3] = Spinach leaf 25 grams, 180 min.

Molecule	Antimicrobial activity (log reduction) of single components ([1]; Spinach leaf 25 grams, 2 min.) [log]	Antimicrobial activity (log reduction) of single components ([1]; Spinach leaf 25 grams, 30 min.) [log]	Antimicrobial activity (log reduction) of single components [1, 3] [log]	Antimicrobial activity (log reduction) of single components ([1]; Strawberry 25 grams, 2 min.) [log]	Antimicrobial activity (log reduction) of single components ([1]; Strawberry 25 grams, 30 min.) [log]	Antimicrobial activity (log reduction) of single components ([1]; Strawberry 25 grams, 180 min.) [log]	level of hypochlorous acid in solution ([2]; in the absence of diol at pH 7) [%]	level of hypochlorous acid in solution ([2]; in the presence of diol at pH 4, at about 4 hours) [%]
BrBr [Bromine (0.08 wgt. %), Bromine]	2.11	3.28	4.44	2.32	3.32	4.89		
O=[O+][O-] [Ozone (0.001 wgt. %), Ozone]	2.34	2.58	3.63	2.89	3.12	4.12		
OCl [hypochlorous acid]							100	0
Octyl Phenol Ethoxylate [Octyl Phenol Ethoxylate (0.5 wgt. %)]	1.15	2.47	3.11	1.05	2.78	3.9		
